Test results as given in paper PMC9351465, “Mechanism-based heparanase inhibitors reduce cancer metastasis in vivo” (Proceedings of the National Academy of Sciences of the …, 2022).

What was measured:
4T1 breast cancer cells = assay: 4T1 murine mammary carcinoma lung metastasis model (luciferase imaging); assay type: in vivo, mouse; conditions: Balb/c mice, i.p. 300 nmol 2 or 150 μg SST0001, then i.v. 4T1-Luc cells with 2 nmol 2 or 10 μg SST0001; 14 d
Protocol: Since HPSE drives metastasis in multiple cancer types, we tested 2 against another metastasis model—4T1 murine mammary carcinoma, which also migrates to the lungs. Here, we were aided by a constitutive luciferase expressing 4T1 line, enabling real-time tracking of cancer growth by chemiluminescent imaging. Similar to the B16 model, mice were dosed i.p. with 300 nmol of 2 or 150 μg SST0001, followed by i.v. injection of 4T1-Luc cells alongside 2 nmol 2 or 10 μg SST0001.
B16-BL6 melanoma cells/mouse in a volume of 100 µL, alongside 20 µM 2 or 10 µg SST0001.
Mice were sacrificed after 14 days and the lungs were dissected, photographed and evaluated for the number of metastatic foci/lung. Plots and statistical analyses were carried out in Prism […]
(§1) Bioluminescence imaging of lung metastases produced by luciferase-expressing 4T1 cells was carried out using a highly sensitive, cooled charge-coupled device camera assembled in a specimen box (IVIS; Xenogen Corp, Hopkinton, MA). […] The tumor burden was quantified using Living Image software (Xenogen) (12, 13). […]
(§2) CAG myeloma - Luciferase-labeled CAG human myeloma cells (3x106) were injected into the tail vein of NOD/SCID mice. […] Tumor burden was quantified using Living Image software. […]

[1] = target: T1, endogenous cellular HPSE (U87 glioma cells) (Homo sapiens, UniProt Q9Y251); assay: H35SPG digest by U87 glioma cell lysates, inhibitor before or after lysis; assay type: cell-based; conditions: inhibitor applied before or after lysis, 18 h digest
T1 construct: endogenous in cells; host or cells: U87 glioma cells
T1 sequence (Q9Y251 158-543 limits assumed): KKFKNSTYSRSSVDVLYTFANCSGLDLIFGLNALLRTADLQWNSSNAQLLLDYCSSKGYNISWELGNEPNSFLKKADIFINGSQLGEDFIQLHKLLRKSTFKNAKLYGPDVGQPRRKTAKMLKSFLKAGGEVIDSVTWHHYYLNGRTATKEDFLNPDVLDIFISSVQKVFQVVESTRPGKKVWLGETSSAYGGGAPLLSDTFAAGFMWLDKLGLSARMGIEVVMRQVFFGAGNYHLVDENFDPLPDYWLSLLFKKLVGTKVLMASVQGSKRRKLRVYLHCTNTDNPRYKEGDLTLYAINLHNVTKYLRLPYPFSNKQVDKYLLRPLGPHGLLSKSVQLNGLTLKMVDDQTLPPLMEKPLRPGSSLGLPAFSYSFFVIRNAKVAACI
T1 sequence (Q9Y251 36-109 limits assumed): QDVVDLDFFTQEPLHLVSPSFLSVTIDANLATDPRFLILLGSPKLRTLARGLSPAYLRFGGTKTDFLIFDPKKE
From the text: Finally, we assessed our inhibitors against HPSE-mediated degradation of bona fide HSPGs in an ECM environment. Cultured bovine corneal endothelial cells secrete a subendothelial basement membrane material rich in proteoglycans, which can be radiolabeled by growth in the presence of ^35SO4^2− ([50]). Solubilized H^35S chains released from H^35SPGs by HPSE digestion can be resolved chromatographically, with HPSE inhibition leading to a corresponding loss of signal. […] We also tested inhibition of endogenous cellular HPSE using this assay format.
Figure S7 Radiolabelled H35SPG basement membrane digests by HPSE expressing U87 cell […]
(1 picture or pasted object on this page, not shown here)
For HS-degradation assays, ECM coated dishes were incubated with 200 ng recombinant HPSE in 1 mL reaction mixture (10 mM buffer Phosphate-Citrate pH 6.0, 50 mM NaCl, 1 mM DTT, 1 mM CaCl2) containing HPSE inhibitors or DMSO control. […] The Sepharose 6B column was eluted with PBS, and 35S radioactivity of 0.2 mL fractions quantitated using a liquid scintillation analyzer (Packard BioScience) (11). […]
Cells in the upper chamber were separated by Matrigel from a lower chamber containing 600 µL DMEM, supplemented with 10% FBS. […] 10 randomly selected microscopic fields were recorded, and cell invasion calculated using ImageJ, by quantitating the percentage of the field stained by crystal violet. […]

CAG myeloma cancer cells = assay: CAG myeloma xenograft bone metastasis model (luciferase imaging); assay type: in vivo, mouse; conditions: NOD/SCID mice
From the text: Finally, we examined a CAG myeloma xenograft model, which faithfully recapitulates the invasion of multiple myeloma to the bone marrow. We compared the efficacy of 2 to bortezomib, a proteasome inhibitor and standard treatment for multiple myeloma and lymphomas, and also explored the possibility of synergistic proteasomal and HPSE inhibitor treatment. In contrast to the single initial dose regimens used for B16 and 4T1, a continuous dosing regimen was used in this assay to gauge the efficacy of 2 over longer treatment periods. Following injection of luciferase expressing CAG cells, mice were treated with a course of 2 (300 nmol/day i.p.), bortezomib (0.5 mg/kg twice weekly i.p.), or a combination of both compounds. […]
Mice were sacrificed after 14 days and the lungs were dissected, photographed and evaluated for the number of metastatic foci/lung. […]
as §1, §2

CC(=O)N[C@H]1[C@@H](O[C@H]2[C@H](O)[C@@H](O)[C@@H]3O[C@@H]3[C@@H]2C(=O)O)O[C@H](CO)[C@@H](O)[C@@H]1O [compound 2]
lung metastases (bioluminescent flux) (4T1 breast cancer cells): marked reduction in lung metastases
inhibition of intracellular HPSE pool (cell penetration) [1]: can also penetrate cells to inhibit the intracellular HPSE pool
metastatic burden (bioluminescent flux) (CAG myeloma cancer cells; 2 300 nmol/day i.p., bortezomib 0.5 mg/kg twice weekly i.p., imaging over time): moderate reduction in metastatic burden
antimetastatic efficacy at 33 d timepoint (CAG myeloma cancer cells; continuous dosing, 33 d): somewhat reduced efficacy following prolonged treatment
